Read-outs that look alike come from different tables or passages of the source. Starred links: 1 amine or outer side, 2 acyl side, 3 side chain; linkers in the order of their positions; H or OH if unused. Non-standard residues stand in square brackets, D forms with d. Residues, ends and D or L forms follow the SMILES beside them. *: point of attachment. X1 = Cc1cc(F)cc(-c2cnc(NCCNC(=O)CCOCCC(=O)*)c(-c3nc4ccc(Cl)cc4[nH]3)c2N2CCC(N)CC2)c1; X5 = Cc1cc(F)cc(-c2cnc(NCCNC(=O)CCOCCC(=O)*)c(-c3nc4cc(Cl)ccc4[nH]3)c2N2CCC(N)CC2)c1; Dolaproine = CO[C@@H]([C@@H]1CCCN1)[C@@H](C)C(=O)O; Dil = CC[C@H](C)[C@H](NC)[C@@H](CC(=O)O)OC; PABC = O=C(OCc1ccc(N[*:1])cc1)[*:2]; X2 = C[C@@H](N*)[C@@H](O)c1ccccc1; Cya = N[C@@H](CS(=O)(=O)O)C(=O)O; Cit = NC(=O)NCCC[C@H](N)C(=O)O; NMeV = CN[C@H](C(=O)O)C(C)C
Legend:
Type in all cases: cell-based
[1] = system: NCI-H524 (ATCC) human small cell lung cancer cells; conditions: 2 h
Protocol: SMDCs of the present invention were assessed in an in vitro assay evaluating the inhibition of cell proliferation. NCI-H524 (ATCC) human small cell lung cancer cells were plated in 96-well V-bottom plates (Costar) at a concentration of 5,000 cells/well. 24 h later, the cells were treated for 2 h with a SMDC. SMDC starting dose was 1 uM and two-fold serial dilutions were done for a total of 11 points. After 2 h of treatment, cells were spun down, and the drug-containing media was removed, and fresh complete media was added and used to resuspend the cells, which were spun again. After removal of the media, the cells were resuspended in complete medium and incubated for an additional 70 h. Cell proliferation was assessed using the CellTiter Glo Assay according to the standard protocol (Promega). Luminescence was measured using a TECAN plate reader. Percent proliferation inhibition was calculated using the following formula: % inhibition=(Luminescence Control−Luminescence Treatment)/Luminescence Control*100. IC50 curves were generated using the nonlinear regression analysis (four-parameter) with GraphPad Prism 9.

SST2 = target: T1, SST2 (Homo sapiens, UniProt P30874); assay: PathHunter CHO-K1 SST2 internalization assay; conditions: PathHunter CHO-K1 SST2, 90 min
T1 construct: host or cells: PathHunter CHO-K1 SST2 cells
T1 sequence (P30874 whole entry): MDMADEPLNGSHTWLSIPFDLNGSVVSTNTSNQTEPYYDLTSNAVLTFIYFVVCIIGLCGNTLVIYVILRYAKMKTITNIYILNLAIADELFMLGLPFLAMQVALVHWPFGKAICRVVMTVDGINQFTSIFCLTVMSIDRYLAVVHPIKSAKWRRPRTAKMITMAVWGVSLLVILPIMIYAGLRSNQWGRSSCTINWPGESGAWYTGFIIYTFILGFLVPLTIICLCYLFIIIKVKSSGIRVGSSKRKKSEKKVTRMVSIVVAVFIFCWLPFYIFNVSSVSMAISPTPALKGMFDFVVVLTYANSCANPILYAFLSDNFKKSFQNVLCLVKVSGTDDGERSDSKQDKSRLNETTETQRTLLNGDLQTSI
Protocol: SMDCs of the present invention were assessed in vitro using the human PathHunter CHO-K1 SST2 β-arrestin2 and PathHunter CHO-K1 SST2 Internalization Assays from DiscoverX. The CHO-K cells were seeded in 20 μLs of cell culture medium in a white-walled 384 well tissue culture-compatible plate at a density of 2500 cells/well. After a 48-hour incubation, cells were treated with 5 μLs of a 1:3 serially diluted SST2 SMDC prepared at 5× concentration with a final top compound concentration of 10 uM for 90 min at 37 C and in 5% CO2. 11 dilutions were tested as well as one treatment that was compound free. After incubation, the media containing treatments were discarded and 20 μL of a working solution of Beta-Glo from Promega Beta-Glo Assay System was added to each well. The plate was then incubated for 60 min at room temperature in the dark. Luminescence was measured using a Tecan plate reader. IC50 curves were generated using the nonlinear regression analysis (four-parameters) with GraphPad Prism 9. Results were the average of duplicates and are corrected for background.

[2] = target: T2, human somatostatin receptor subtype 2 (Homo sapiens, UniProt P30874); assay: Functional cAMP assay for SSTR2 agonists (HTRF) in CHO-K1 cells; conditions: CHO-K1 cells stably expressing human SST2, 20 min
T2 construct: expressed in transfected cells
T2 sequence (P30874 whole entry): as above
Description: General overview: All five SSTR subtypes are Gi coupled G-protein coupled receptors (GPCRs) that lead to decreases in intracellular cyclic AMP (cAMP) when activated by an agonist. Therefore, measurement of intracellular cAMP levels can be used to assess whether compounds of the invention are agonists of SSTR subtypes (John Kelly, Troy Stevens, W. Joseph Thompson, and Roland Seifert, Current Protocols in Pharmacology, 2005, 2.2.1-2.2). One example of an intracellular cAMP assay is described below.
Functional Assay for SSTR2 Agonists
Four days prior to the assay, 2,000 Chinese hamster ovary cells (CHO-K1, ATCC #CCL-61) stably expressing the human somatostatin receptor subtype 2 are plated in each well of a 96-well tissue culture-treated plate in Ham's F12 growth media (ThermoFisher #10-080-CM) supplemented with 10% donor bovine serum (Gemini Bio-Products #100-506), 100 U/mL penicillin; 100 ug/mL streptomycin; 2 mM L-glutamine (Gemini Bio-Products #400-110) and 0.2 mg/mL hygromycin B (GoldBio #31282-04-9). The cells are cultured at 37° C., 5% CO2 and 95% humidity. cAMP is measured with HTRF dynamic cAMP assay (Cisbio, #62AM5PEJ) per manufacturer's instructions. On the day of the assay, the media is aspirated and the cells are treated with 50 μL of stimulation buffer supplemented with 10.2 mM 3-Isobutyl-1-methylxanthine (IBMX, Millipore Sigma #15879) and 1.6 μM NKH477 (Tocris #1603), plus various dilutions of SMDCs of the present invention. The cells are incubated for 20 minutes at 37° C. (the final concentration of the compounds of the invention are typically 0-10,000 nM). The cells are treated with 50 μL of lysis buffer (HRTF cAMP kit, Cisbio) and incubated at room temperature for 30 minutes with rotary shaking at 600 rpm, and then diluted with 150 μL of stimulation buffer and shaken for an additional five minutes at 300 rpm. The lysate is transferred to 384-well plates and incubated for 1-24 hours at room temperature, and cAMP accumulation is detected by d2-labeled cAMP and Anti-cAMP-Cryptate. The time-resolved fluorescent signal is read using a m1000 Pro (Tecan) or CLARIOStar (BMG Labtech) microplate reader, where the samples are excited with light at 340 nm and emission light is measured at 620 nm and 665 nm. The data is expressed as a calculation of the fluorescence ratio (665 nm/620 nm). The intracellular cAMP concentrations are calculated by regression to a standard curve and are plotted vs. the concentration of the compounds of the invention. The EC50 of the compounds are calculated using standard methods. All data manipulations are in GraphPad Prism v9 (GraphPad, San Diego, CA).

SMILES | EC50 [1] | EC50 (SST2; read-out: Internalization EC50) | EC50 ([2]; read-out: hSST2 cAMP Avg EC50) | EC50 (SST2; Internalization EC50 (nM)) | EC50 ([2]; hSST2 cAMP Avg EC50 (nM))
CCC(C)C(C(CC(=O)N1CCCC1C(OC)C(C)C(=O)NC(C)C(O)c1ccccc1)OC)N(C)C(=O)C(NC(=O)C(C(C)C)N(C)C(=O)OCc1ccc(NC(=O)[C@H](CCCNC(N)=O)NC(=O)[C@@H](NC(=O)CCOCCOCCC(=O)NCCNc2ncc(-c3cc(C)cc(F)c3)c(N3CCC(N)CC3)c2-c2nc3ccc(Cl)cc3[nH]2)C(C)C)cc1)C(C)C (stereo in doubt) [Compound 24] | 13.4 nM | 12 nM | 0.2 nM |  | 
CCC(C)C(C(CC(=O)N1CCCC1C(OC)C(C)C(=O)NC(C)C(O)c1ccccc1)OC)N(C)C(=O)C(NC(=O)C(C(C)C)N(C)C(=O)OCc1ccc(NC(=O)[C@H](CCCNC(N)=O)NC(=O)[C@@H](NC(=O)CCOCCOCCOCCOCCC(=O)NCCNc2ncc(-c3cc(C)cc(F)c3)c(N3CCC(N)CC3)c2-c2nc3ccc(Cl)cc3[nH]2)C(C)C)cc1)C(C)C (stereo in doubt) [Compound 25] | 25 nM | 27 nM | 0.34 nM |  | 
CCC(C)C(C(CC(=O)N1CCCC1C(OC)C(C)C(=O)NC(C)C(O)c1ccccc1)OC)N(C)C(=O)C(NC(=O)C(C(C)C)N(C)C(=O)OCc1ccc(NC(=O)[C@H](CCCNC(N)=O)NC(=O)[C@@H](NC(=O)CCOCCC(=O)NCCNc2ncc(-c3cc(C)cc(F)c3)c(N3CCC(N)CC3)c2-c2nc3ccc(Cl)cc3[nH]2)C(C)C)cc1)C(C)C (stereo in doubt) [Compound 26] | 10.6 nM | 11.6 nM | 0.3 nM |  | 
CCC(C)C(C(CC(=O)N1CCCC1C(OC)C(C)C(=O)NC(C)C(O)c1ccccc1)OC)N(C)C(=O)C(NC(=O)C(C(C)C)N(C)C(=O)OCc1ccc(NC(=O)[C@H](CCCNC(N)=O)NC(=O)[C@@H](NC(=O)CCOCCOCCOCCOCCOCCOCCOCCOCCC(=O)NCCNc2ncc(-c3cc(C)cc(F)c3)c(N3CCC(N)CC3)c2-c2nc3ccc(Cl)cc3[nH]2)C(C)C)cc1)C(C)C (stereo in doubt) [Compound 27] | 65.5 nM | 27.8 nM | 0.2 nM |  | 
CCC(C)C(C(CC(=O)N1CCCC1C(OC)C(C)C(=O)NC(C)C(O)c1ccccc1)OC)N(C)C(=O)C(NC(=O)C(C(C)C)N(C)C(=O)OCc1ccc(NC(=O)[C@H](CCCNC(N)=O)NC(=O)[C@@H](NC(=O)CCOCCC(=O)NCCNc2ncc(-c3cc(C)cc(F)c3)c(N3CCC(N)CC3)c2-c2nc3ccc(C(N)=O)cc3[nH]2)C(C)C)cc1)C(C)C (stereo in doubt) [Compound 28] | 1290 nM | 704 nM | 2 nM |  | 
CCC(C)C(C(CC(=O)N1CCCC1C(OC)C(C)C(=O)NC(C)C(O)c1ccccc1)OC)N(C)C(=O)C(NC(=O)C(C(C)C)N(C)C(=O)OCc1ccc(NC(=O)[C@H](CCCNC(N)=O)NC(=O)[C@@H](NC(=O)CNC(=O)[C@H](Cc2ccccc2)NC(=O)CNC(=O)CNC(=O)CCOCCC(=O)NCCNc2ncc(-c3cc(C)cc(F)c3)c(N3CCC(N)CC3)c2-c2nc3ccc(Cl)cc3[nH]2)C(C)C)cc1)C(C)C (stereo in doubt) [Compound 30] | 28.6 nM | 7.1 nM | 0.56 nM |  | 
Cc1cc(F)cc(-c2cnc(NCCNC(=O)CCOCCOCCOCCOCCNC(=O)CCCCC[N+]3=C(/C=C/C=C/C=C4/N(C)c5ccccc5C4(C)C)C(C)(C)c4ccccc43)c(-c3nc4ccc(Cl)cc4[nH]3)c2N2CCC(N)CC2)c1 [Compound 12, 1-[5-({14-[(2-{[4-(4-aminopiperidin-1-yl)-3-(6-chloro-1H-1,3-benzodiazol-2-yl)-5-(3-fluoro-5-methylphenyl)pyridin-2-yl]amino}ethyl)carbamoyl]-3,6,9,12-tetraoxatetradecan-1-yl}carbamoyl)pentyl]-3,3-dimethyl-2-[(1E,3E)-5-[(2E)-1,3,3-trimethyl-2,3-dihydro-1H-indol-2-ylidene]penta-1,3-dien-1-yl]-3H-indol-1-ium] |  | 2.9 nM | 0.39 nM |  | 
CC[C@H](C)[C@@H]([C@@H](CC(=O)N1CCC[C@H]1[C@H](OC)[C@@H](C)C(=O)N[C@H](C)[C@@H](O)c1ccccc1)OC)N(C)C(=O)[C@@H](NC(=O)[C@H](C(C)C)N(C)C(=O)OCc1ccc(NC(=O)[C@H](C)NC(=O)[C@@H](NC(=O)[C@H](CCC(=O)O)NC(=O)CCOCCC(=O)NCCNc2ncc(-c3cc(C)cc(F)c3)c(N3CCC(N)CC3)c2-c2nc3cc(Cl)ccc3[nH]2)C(C)C)cc1)C(C)C [Compound 32] (X5-EVA[PABC][NMeV]V[Dil][Dolaproine]-X2) | 155 nM |  |  |  | 
CC[C@H](C)[C@@H]([C@@H](CC(=O)N1CCC[C@H]1[C@H](OC)[C@@H](C)C(=O)N[C@H](C)[C@@H](O)c1ccccc1)OC)N(C)C(=O)[C@@H](NC(=O)[C@H](C(C)C)N(C)C(=O)OCc1ccc(NC(=O)[C@H](CCCNC(N)=O)NC(=O)[C@@H](NC(=O)[C@H](CS(=O)(=O)O)NC(=O)CCOCCOCCOCCOCCC(=O)NCCNc2ncc(-c3cc(C)cc(F)c3)c(N3CCC(N)CC3)c2-c2nc3cc(Cl)ccc3[nH]2)C(C)C)cc1)C(C)C [Compound 81] | 32 nM |  |  |  | 
CC[C@H](C)[C@@H]([C@@H](CC(=O)N1CCC[C@H]1[C@H](OC)[C@@H](C)C(=O)N[C@H](C)[C@@H](O)c1ccccc1)OC)N(C)C(=O)[C@@H](NC(=O)[C@H](C(C)C)N(C)C(=O)OCc1ccc(NC(=O)[C@H](CCCNC(N)=O)NC(=O)[C@@H](NC(=O)[C@H](CS(=O)(=O)O)NC(=O)[C@H](CCC(=O)O)NC(=O)CCOCCC(=O)NCCNc2ncc(-c3cc(C)cc(F)c3)c(N3CCC(N)CC3)c2-c2nc3ccc(Cl)cc3[nH]2)C(C)C)cc1)C(C)C [Compound 115] (X1-E[Cya]V[Cit][PABC][NMeV]V[Dil][Dolaproine]-X2) |  | 3.6 nM | 0.08 nM |  | 
CC[C@@]1(O)C(=O)OCc2c1cc1n(c2=O)Cc2c-1nc1cc(F)c(C)c3c1c2[C@@H](NC(=O)OCc1ccc(NC(=O)[C@H](CCCNC(N)=O)NC(=O)[C@@H](NC(=O)CCOCCOCCOCCOCCC(=O)NCCNc2ncc(-c4cc(C)cc(F)c4)c(N4CCC(N)CC4)c2-c2nc4ccc(Cl)cc4[nH]2)C(C)C)c(O[C@@H]2O[C@H](C(=O)O)[C@@H](O)[C@H](O)[C@H]2O)c1)CC3 [Compound 127] |  |  |  | 13 nM | 0.26 nM
CC[C@H](C)[C@@H]([C@@H](CC(=O)N1CCC[C@H]1[C@H](OC)[C@@H](C)C(=O)N[C@H](C)[C@@H](O)c1ccccc1)OC)N(C)C(=O)[C@@H](NC(=O)[C@H](C(C)C)N(C)C(=O)OCc1ccc(NC(=O)[C@H](CCCNC(N)=O)NC(=O)[C@@H](NC(=O)[C@H](CS(=O)(=O)O)NC(=O)CCOCCOCCOCCOCCC(=O)NCCNc2ncc(-c3cc(C)cc(F)c3)c(N3CCC(N)CC3)c2-c2nc3ccc(Cl)cc3[nH]2)C(C)C)cc1C(=O)NCCN)C(C)C [Compound 157] |  | 12 nM | 0.17 nM |  | 

Source: US12134610B2, “Somatostatin subtype-2 receptor (SST2R) targeted therapeutics and uses thereof” (priority 2022, dated 2024)
